Experimental data reported in patent publication US8062681B2, “Amino acid oligomer dietary supplement” (The Curators Of The University Of Missouri, priority 2006, dated 2011).
Marks after values point to notes of the source that are not given here.

Tested on: rumen fluid

CSCCC(N)C(=O)O (centres unmarked) [D, L Met, D,L Methionine]
Supplemental Methionine Recovered: 12.25^c %
MOEFF (microbial efficiency) (continuous culture fermenters, .045 g/d supplement with 45 g/d soyhulls): 9.11 grams of bacterial nitrogen per kilogram organic matter fermented
